Experimental data: ChEMBL document CHEMBL1909046, “DrugMatrix in vitro pharmacology data”
pIC50, pKi: −log10 of the molar value. *1 amine or outer side, *2 acyl side, *3 side chain or, on linkers, in order; H or OH if unused. Where a SMILES comes first, the peptide text is derived from it. Bridges are numbered along the chain shown (N, C = ends). Roman numbers before positions name the chains, in order. [ ]: non-standard residue; d: D form. Actinocin(1to9) = Cc1c2oc3c(C)ccc(C(=O)[*:2])c3nc-2c(C(=O)[*:1])c(N)c1=O; NMeV = CN[C@H](C(=O)O)C(C)C; Sar = CNCC(=O)O

Assays:
[1] = target: Sigma non-opioid intracellular receptor 1 (Homo sapiens, UniProt Q99720); assay: DRUGMATRIX: Sigma1 radioligand binding (ligand: [3H] Haloperidol); type: cell membranes, Jurkat, Membrane; settings: Not Active = under 50% inhibition at 10 µM; for IC50 / Ki: jurkat
Chain of Sigma non-opioid intracellular receptor 1 (Q99720 whole entry): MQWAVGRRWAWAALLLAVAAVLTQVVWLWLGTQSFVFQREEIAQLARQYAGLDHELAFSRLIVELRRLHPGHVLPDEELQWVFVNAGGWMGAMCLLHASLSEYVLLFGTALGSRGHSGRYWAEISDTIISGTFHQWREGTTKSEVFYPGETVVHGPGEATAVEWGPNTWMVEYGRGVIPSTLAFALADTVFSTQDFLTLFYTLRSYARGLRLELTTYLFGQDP

D(1A) dopamine receptor = D(1A) dopamine receptor (Homo sapiens, UniProt P21728); assay: DRUGMATRIX: Dopamine D1 radioligand binding (ligand: [3H] SCH-23390); type: cell membranes, CHO, Membrane; settings: Not Active = under 50% inhibition at 10 µM; for IC50 / Ki: cho; for pIC50: read-out: IC50; for pKi: read-out: Ki
Chain of D(1A) dopamine receptor (P21728 whole entry): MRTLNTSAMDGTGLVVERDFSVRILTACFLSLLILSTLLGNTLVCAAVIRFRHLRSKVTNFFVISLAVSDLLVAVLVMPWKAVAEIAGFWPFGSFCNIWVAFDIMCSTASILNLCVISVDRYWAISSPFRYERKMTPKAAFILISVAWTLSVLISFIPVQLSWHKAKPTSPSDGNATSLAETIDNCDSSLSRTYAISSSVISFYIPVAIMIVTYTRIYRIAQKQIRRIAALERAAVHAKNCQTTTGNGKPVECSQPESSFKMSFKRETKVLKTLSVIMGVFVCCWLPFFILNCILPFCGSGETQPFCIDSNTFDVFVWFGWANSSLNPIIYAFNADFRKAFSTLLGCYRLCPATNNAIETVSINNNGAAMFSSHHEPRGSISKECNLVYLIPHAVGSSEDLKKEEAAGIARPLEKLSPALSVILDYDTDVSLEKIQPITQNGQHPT

[2] = DRUGMATRIX: GABAA, Flunitrazepam, Central radioligand binding (ligand: [3H] Flunitrazepam); type: cell membranes, Rattus norvegicus, Wistar, Brain, Membrane; settings: Not Active = under 50% inhibition at 10 µM
[3] = DRUGMATRIX: Imidazoline I2, Central radioligand binding (ligand: [3H] Idazoxan); type: cell membranes, Rattus norvegicus, Wistar, Cerebral cortex, Membrane; settings: Not Active = under 50% inhibition at 10 µM; for pIC50: read-out: IC50; for pKi: read-out: Ki
Caspase-1 = target: T1, Caspase-1 (Homo sapiens, UniProt P29466); set-up: species or system Escherichia coli;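 further: Caspase-1 enzyme inhibition assay with a peptide substrate; in other assays of this panel Not Active means under 50% inhibition at 10 µM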
T1 sequence (P29466 whole entry): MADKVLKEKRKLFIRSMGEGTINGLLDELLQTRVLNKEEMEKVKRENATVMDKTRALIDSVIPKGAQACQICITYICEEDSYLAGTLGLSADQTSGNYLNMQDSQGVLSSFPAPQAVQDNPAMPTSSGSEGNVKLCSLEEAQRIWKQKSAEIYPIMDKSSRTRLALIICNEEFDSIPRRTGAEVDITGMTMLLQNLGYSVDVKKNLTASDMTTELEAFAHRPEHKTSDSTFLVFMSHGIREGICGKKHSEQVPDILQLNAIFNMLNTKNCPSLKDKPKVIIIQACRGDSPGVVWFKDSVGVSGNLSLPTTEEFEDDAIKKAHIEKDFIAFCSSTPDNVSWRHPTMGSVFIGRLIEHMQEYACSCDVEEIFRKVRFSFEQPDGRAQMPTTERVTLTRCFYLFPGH

[4] = target: T2, 5-hydroxytryptamine receptor 1A (Rattus norvegicus, UniProt P19327); type: cell membranes, CHO-K1, Membrane; settings: for IC50 / Ki: cho-k1; for pIC50: read-out: IC50; for pKi: read-out: Ki; on all read-outs here: in other assays of this panel Not Active means under 50% inhibition at 10 µM
T2 sequence (P19327 whole entry): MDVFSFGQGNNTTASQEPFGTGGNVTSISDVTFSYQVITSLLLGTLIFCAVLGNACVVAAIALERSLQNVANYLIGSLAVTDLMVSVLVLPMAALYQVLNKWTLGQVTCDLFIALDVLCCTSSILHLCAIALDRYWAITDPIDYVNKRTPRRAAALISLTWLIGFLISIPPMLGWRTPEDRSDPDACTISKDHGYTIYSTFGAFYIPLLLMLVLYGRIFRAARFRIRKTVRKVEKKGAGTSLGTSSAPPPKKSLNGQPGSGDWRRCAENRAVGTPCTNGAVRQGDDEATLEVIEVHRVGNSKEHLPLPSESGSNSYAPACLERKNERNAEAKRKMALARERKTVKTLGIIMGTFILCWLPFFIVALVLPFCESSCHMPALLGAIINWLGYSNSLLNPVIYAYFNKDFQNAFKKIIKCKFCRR

Compound	IC50 [1]	IC50 (D(1A) dopamine receptor)	IC50 [2]	Ki [2]	IC50 [3]	Ki [3]	IC50 (Caspase-1)	IC50 [4]	pIC50 [4]	pKi [4]	pIC50 [3]	pKi [3]	pIC50 (D(1A) dopamine receptor)	pKi (D(1A) dopamine receptor)	Ki [1]	Ki (D(1A) dopamine receptor)	Ki (Caspase-1)	Ki [4]	pIC50 ([1]; read-out: IC50)	pKi ([1]; read-out: Ki)
COCCc1ccc(OCC(O)CNC(C)C)cc1 (stereo not given) [METOPROLOL]	Not Active	Not Active	Not Active	Not Active	Not Active	Not Active	Not Active	Not Active												
COc1cc2nc(N3CCN(C(=O)C4COc5ccccc5O4)CC3)nc(N)c2cc1OC (stereo not given) [DOXAZOSIN]	Not Active	Not Active	Not Active	Not Active	Not Active	Not Active	Not Active	Not Active												
NCCCCCC(=O)O [AMINOCAPROIC ACID]	Not Active	Not Active	Not Active	Not Active	Not Active	Not Active	Not Active	Not Active												
CC(C)(C)NCC(O)c1cc(Cl)c(N)c(Cl)c1 (stereo not given) [CLENBUTEROL]	Not Active	Not Active	Not Active	Not Active	Not Active	Not Active	Not Active		5.58	5.82										
CCCN1C[C@H](CSC)C[C@@H]2c3cccc4[nH]cc(c34)C[C@H]21 [PERGOLIDE]	Not Active		Not Active	Not Active			Not Active				5.51	5.69								
CN(C)C(=O)Oc1cc(OC(=O)N(C)C)cc(C(O)CNC(C)(C)C)c1 (stereo not given) [BAMBUTEROL]	Not Active	Not Active	Not Active	Not Active	Not Active	Not Active	Not Active	Not Active												
c1ccc(Nc2ccc(Nc3ccccc3)cc2)cc1	Not Active	Not Active	Not Active	Not Active	Not Active	Not Active	Not Active	Not Active												
Cc1cc(C(C#N)c2ccc(Cl)cc2)c(Cl)cc1NC(=O)c1cc(I)cc(I)c1O (stereo not given) [CLOSANTEL]	Not Active	Not Active	Not Active	Not Active	Not Active	Not Active	Not Active	Not Active												
Cc1ccc2cc3c(ccc4ccccc43)c3c2c1CC3 [3-METHYLCHOLANTHRENE]	Not Active	Not Active	Not Active	Not Active	Not Active	Not Active	Not Active	Not Active												
Nc1nc2c(ncn2CCC(CO)CO)c(=O)[nH]1 [PENCICLOVIR]	Not Active	Not Active	Not Active	Not Active	Not Active	Not Active	Not Active	Not Active												
CC1Cc2ccccc2N1NC(=O)c1ccc(Cl)c(S(N)(=O)=O)c1 (stereo not given) [INDAPAMIDE]	Not Active	Not Active	Not Active	Not Active	Not Active	Not Active	Not Active	Not Active												
Cc1ccc(-c2cc(C(F)(F)F)nn2-c2ccc(S(N)(=O)=O)cc2)cc1 [CELECOXIB]	Not Active		Not Active	Not Active	Not Active	Not Active	Not Active	Not Active					4.55	4.85						
CCCCc1nc(Cl)c(CO)n1Cc1ccc(-c2ccccc2-c2nnn[nH]2)cc1 [LOSARTAN]	Not Active	Not Active	Not Active	Not Active	Not Active	Not Active	Not Active	Not Active												
CC(NC(C)(C)C)C(=O)c1cccc(Cl)c1 (stereo not given) [BUPROPION]	Not Active	Not Active	Not Active	Not Active	Not Active	Not Active	Not Active	Not Active												
COc1cc2c3cc1Oc1cc(ccc1O)C[C@@H]1c4c(cc(OC)c(O)c4Oc4ccc(cc4)C[C@@H]3N(C)CC2)CC[N+]1(C)C.[Cl-]	Not Active	Not Active	Not Active	Not Active	Not Active	Not Active	Not Active	Not Active												
CCC(C)n1ncn(-c2ccc(N3CCN(c4ccc(OCC5COC(Cn6cncn6)(c6ccc(Cl)cc6Cl)O5)cc4)CC3)cc2)c1=O (stereo not given) [ITRACONAZOLE]	Not Active	Not Active	Not Active	Not Active	Not Active	Not Active	Not Active	Not Active												
CADMIUM ACETATE	Not Active	Not Active	Not Active	Not Active	Not Active	Not Active	Not Active	Not Active							Not Active	Not Active	Not Active	Not Active		
C[C@H]1O[C@@H](O[C@H]2[C@@H](O)C[C@H](O[C@H]3[C@@H](O)C[C@H](O[C@H]4CC[C@@]5(C)[C@H](CC[C@@H]6[C@@H]5C[C@@H](O)[C@]5(C)[C@@H](C7=CC(=O)OC7)CC[C@]65O)C4)O[C@@H]3C)O[C@@H]2C)C[C@H](O)[C@@H]1O [DIGOXIN]	Not Active	Not Active	Not Active	Not Active	Not Active	Not Active	Not Active	Not Active												
Cc1c2oc3c(C)ccc(C(=O)N[C@@H]4C(=O)N[C@H](C(C)C)C(=O)N5CCC[C@H]5C(=O)N(C)CC(=O)N(C)[C@@H](C(C)C)C(=O)O[C@@H]4C)c3nc-2c(C(=O)N[C@@H]2C(=O)N[C@H](C(C)C)C(=O)N3CCC[C@H]3C(=O)N(C)CC(=O)N(C)[C@@H](C(C)C)C(=O)O[C@@H]2C)c(N)c1=O [DACTINOMYCIN] (I: T[dV]P[Sar][NMeV] / II: T[dV]P[Sar][NMeV]; ester I:1-I:C, II:1-II:C; linker I:N-II:N via Actinocin(1to9))	Not Active	Not Active	Not Active	Not Active	Not Active	Not Active	Not Active	Not Active												
C=C(C)C1(O)OC(=O)C=C1OC (stereo not given) [PENICILLIC ACID]	Not Active	Not Active	Not Active	Not Active	Not Active	Not Active	Not Active	Not Active												
CN(Cc1ccc(C(C)(C)C)cc1)Cc1cccc2ccccc12 [BUTENAFINE]		Not Active	Not Active	Not Active	Not Active	Not Active	Not Active	Not Active											5.40	5.78
NC(=O)N1c2ccccc2CCc2ccccc21	Not Active	Not Active	Not Active	Not Active	Not Active	Not Active	Not Active	Not Active												
Cc1onc(-c2ccccc2Cl)c1C(=O)N[C@@H]1C(=O)N2[C@@H]1SC(C)(C)[C@@H]2C(=O)O [CLOXACILLIN]	Not Active	Not Active	Not Active	Not Active	Not Active	Not Active	Not Active	Not Active												
COc1ccc(C[C@H]2NC[C@H](O)[C@H]2OC(C)=O)cc1 [ANISOMYCIN]	Not Active	Not Active	Not Active	Not Active	Not Active	Not Active	Not Active	Not Active							Not Active	Not Active	Not Active	Not Active		
CCn1cc(C(=O)O)c(=O)c2cc(F)c(N3CCNCC3)cc21 [NORFLOXACIN]	Not Active	Not Active	Not Active	Not Active	Not Active	Not Active	Not Active	Not Active												
CN(C)CCCN1c2ccccc2Sc2ccc(Cl)cc21 [CHLORPROMAZINE]			Not Active	Not Active			Not Active		5.33	5.57	5.57	5.75								
O=C(CCCN1CC=C(n2c(=O)[nH]c3ccccc32)CC1)c1ccc(F)cc1 [DROPERIDOL]			Not Active	Not Active			Not Active		6.62	6.86	5.54	5.72	5.96	6.26						
